Measured values as given in patent US20150274661A1, “INDOL-AMIDE COMPOUNDS AS BETA-AMYLOID INHBITORS” (Hoffmann-La Roche Inc., priority 2012, published 2015).

tested on: Aβ42 secretion; experiment: Cellular γ-secretase assay (inhibition of Aβ42 secretion); type: cell-based; conditions: Homo sapiens, 22 h, human neuroglioma H4 cells overexpressing human APP, 22 hours incubation
Description: Cellular γ-Secretase Assay
The compounds were investigated in accordance with the test given hereinafter.
Human neuroglioma H4 cells overexpressing human APP were plated at 30,000 cells/well/200 μL in 96-well plates in IMDM media containing 10% FCS, […] Hygromycin B and incubated for 2 hours at 37° C., 5% CO2 prior to adding test compounds.
Compounds for testing were dissolved in 100% Me2SO yielding in a 10 mM stock solution. Typically 12 μL of these solutions were further diluted in 1000 μL of IMDM media (w/o FCS). Subsequent 1:1 dilutions gave a ten point dose response curve. 100 μL of each dilution was added to the cells in 96-well plates. Appropriate controls using vehicle only and reference compound were applied to this assay. The final concentration of Me2SO was 0.4%.
After incubation for 22 hours at 37° C., 5% CO2, 50 μL supernatant was transferred into round-bottom 96-well polypropylene plates for detection of Aβ42. 50 μL assay buffer (50 mM Tris/Cl, pH 7.4, 60 mM NaCl, 0.5% BSA, 1% TWEEN 20) was added to the wells followed by the addition of 100 μL of detection antibody (ruthenylated BAP15 0.0625 μg/mL in assay buffer). 50 μL of a premix of capture antibody (biotinylated 6E10 antibody, 1 μg/mL) and Streptavidin-coated magnetic beads (Dynal M-280, 0.125 mg/mL) were preincubated for 1 hour at room temperature before adding the assay plates. Assay plates were incubated on a shaker for 3 hours at room temperature and finally read in the Bioveris M8 Analyser according to the manufacturer's instructions (Bioveris).
IC50 values for inhibition of Aβ42 secretion were calculated by nonlinear regression fit analysis using XLfit 4.0 software (IDBS).

| EC50 [nM] | SMILES |
| --- | --- |
| 1430 | COCCN1CCC(c2ccc3[nH]c(C(=O)Nc4ccc(F)cc4)cc3c2)CC1 [Example 37, 5-[1-(2-Methoxy-ethyl)-piperidin-4-yl]-1H-indole-2-carboxylic acid (4-fluoro-phenyl)-amide] |
| 1290 | O=C(Nc1ccc(F)cc1)c1cc2cc(C3CCN(Cc4ccccc4)CC3)ccc2[nH]1 [Example 38, 5-(1-Benzyl-piperidin-4-yl)-1H-indole-2-carboxylic acid (4-fluoro-phenyl)-amide] |
| 1320 | C=CCN1CCC(c2ccc3[nH]c(C(=O)Nc4ccc(F)cc4)cc3c2)CC1 [Example 39, 5-[1-Allyl-piperidin-4-yl]-1H-indole-2-carboxylic acid (4-fluoro-phenyl)-amide] |
| 1700 | CCCN1CCC(c2ccc3[nH]c(C(=O)Nc4ccc(F)cc4)cc3c2)CC1 [Example 40, 5-[1-Propyl-piperidin-4-yl]-1H-indole-2-carboxylic acid (4-fluoro-phenyl)-amide] |
| 1910 | COC(=O)N1CCC(c2ccc3[nH]c(C(=O)Nc4ccc(F)cc4)cc3c2)CC1 [Example 41, 4-[2-(4-Fluoro-phenylcarbamoyl)-1H-indol-5-yl]-piperidine-1-carboxylic acid methyl ester] |
| 1910 | CCN1CCC(c2ccc3[nH]c(C(=O)Nc4ccc(F)cc4)cc3c2)CC1 [Example 42, 5-[1-Ethyl-piperidin-4-yl]-1H-indole-2-carboxylic acid (4-fluoro-phenyl)-amide] |
| 2470 | COC(=O)CN1CCC(c2ccc3[nH]c(C(=O)Nc4ccc(F)cc4)cc3c2)CC1 [Example 43, {4-[2-(4-Fluoro-phenylcarbamoyl)-1H-indol-5-yl]-piperidin-1-yl}-acetic acid methyl ester] |
| 4380 | CCC(=O)N1CCC(c2ccc3[nH]c(C(=O)Nc4ccc(F)cc4)cc3c2)CC1 [Example 44, 5-(1-Propionyl-piperidin-4-yl)-1H-indole-2-carboxylic acid (4-fluoro-phenyl)-amide] |
| 12900 | O=C(Nc1ccc(F)cc1)c1cc2cc(C3CCN(CCc4ccccc4)CC3)ccc2[nH]1 [Example 45, 5-(1-Phenethyl-piperidin-4-yl)-1H-indole-2-carboxylic acid (4-fluoro-phenyl)-amide] |
| 588 | CC(C)N1CCCC(c2ccc3[nH]c(C(=O)Nc4cccc(F)c4)cc3c2)C1 (centres unmarked) [Example 46, 5-(1-Isopropyl-piperidin-3-yl)-1H-indole-2-carboxylic acid (3-fluoro-phenyl)-amide] |
| 1150 | CC(C)N1CCCC(c2ccc3[nH]c(C(=O)Nc4ccc(F)cc4)cc3c2)C1 (centres unmarked) [Example 47, 5-(1-Isopropyl-piperidin-3-yl)-1H-indole-2-carboxylic acid (4-fluoro-phenyl)-amide] |
| 2510 | CC(C)N1CCC(c2ccc3[nH]c(C(=O)Nc4ccc(F)cc4)cc3c2)CC1 [Example 48, 5-(1-Isopropyl-piperidin-4-yl)-1H-indole-2-carboxylic acid (4-fluoro-phenyl)-amide] |
| 148 | CS(=O)(=O)N1CCCC(c2ccc3[nH]c(C(=O)Nc4cc(F)cc(F)c4)cc3c2)C1 (centres unmarked) [Example 49, 5-(1-Methanesulfonyl-piperidin-3-yl)-1H-indole-2-carboxylic acid (3,5-difluoro-phenyl)-amide] |
| 202 | CC(C)S(=O)(=O)N1CCCC(c2ccc3[nH]c(C(=O)Nc4cc(F)cc(F)c4)cc3c2)C1 (centres unmarked) [Example 50, 5-[1-(Propane-2-sulfonyl)-piperidin-3-yl]-1H-indole-2-carboxylic acid (3,5-difluoro-phenyl)-amide] |
| 263 | CC(C)C(=O)N1CCCC(c2ccc3[nH]c(C(=O)Nc4cc(F)cc(F)c4)cc3c2)C1 (centres unmarked) [Example 51, 5-(1-Isobutyryl-piperidin-3-yl)-1H-indole-2-carboxylic acid (3,5-difluoro-phenyl)-amide] |
| 273 | CC(=O)N1CCCC(c2ccc3[nH]c(C(=O)Nc4cc(F)cc(F)c4)cc3c2)C1 (centres unmarked) [Example 52, 5-(1-Acetyl-piperidin-3-yl)-1H-indole-2-carboxylic acid (3,5-difluoro-phenyl)-amide] |
| 392 | O=C(Nc1cc(F)cc(F)c1)c1cc2cc(C3CCCN(S(=O)(=O)c4ccccc4)C3)ccc2[nH]1 (centres unmarked) [Example 53, 5-(1-Benzenesulfonyl-piperidin-3-yl)-1H-indole-2-carboxylic acid (3,5-difluoro-phenyl)-amide] |
| 403 | O=C(Nc1cc(F)cc(F)c1)c1cc2cc(C3CCCN(C(=O)C4CC4)C3)ccc2[nH]1 (centres unmarked) [Example 54, 5-(1-Cyclopropanecarbonyl-piperidin-3-yl)-1H-indole-2-carboxylic acid (3,5-difluoro-phenyl)-amide] |

| EC50 [nM] | SMILES |
| --- | --- |
| 449 | O=C(Nc1cc(F)cc(F)c1)c1cc2cc(C3CCCN(C(=O)c4ccccc4)C3)ccc2[nH]1 (centres unmarked) [Example 55, 5-(1-Benzoyl-piperidin-3-yl)-1H-indole-2-carboxylic acid (3,5-difluoro-phenyl)-amide] |
| 466 | O=C(Nc1cc(F)cc(F)c1)c1cc2cc(C3CCCN(S(=O)(=O)C4CC4)C3)ccc2[nH]1 (centres unmarked) [Example 56, 5-(1-Cyclopropanesulfonyl-piperidin-3-yl)-1H-indole-2-carboxylic acid (3,5-difluoro-phenyl)-amide] |
| 668 | COCC(=O)N1CCCC(c2ccc3[nH]c(C(=O)Nc4cc(F)cc(F)c4)cc3c2)C1 (centres unmarked) [Example 57, 5-[1-(2-Methoxy-acetyl)-piperidin-3-yl]-1H-indole-2-carboxylic acid (3,5-difluoro-phenyl)-amide] |
| 744 | Cn1cnc(S(=O)(=O)N2CCCC(c3ccc4[nH]c(C(=O)Nc5cc(F)cc(F)c5)cc4c3)C2)c1 (centres unmarked) [Example 58, 5-[1-(1-Methyl-1H-imidazole-4-sulfonyl)-piperidin-3-yl]-1H-indole-2-carboxylic acid (3,5-difluoro-phenyl)-amide] |
| 183 | CN1CCCC(c2ccc3[nH]c(C(=O)Nc4cc(F)cc(F)c4)cc3c2)C1 (centres unmarked) [Example 59, 5-(1-Methyl-piperidin-3-yl)-1H-indole-2-carboxylic acid (3,5-difluoro-phenyl)-amide] |
| 1380 | COCCN1CCCC(c2ccc3[nH]c(C(=O)Nc4cc(F)cc(F)c4)cc3c2)C1 (centres unmarked) [Example 60, 5-[1-(2-Methoxy-ethyl)-piperidin-3-yl]-1H-indole-2-carboxylic acid (3,5-difluoro-phenyl)-amide] |
| 354 | O=C(Nc1cc(F)cc(F)c1)c1cc2cc(C3CCCNC3)ccc2[nH]1 (centres unmarked) [Example 62, 5-Piperidin-3-yl-1H-indole-2-carboxylic acid (3,5-difluoro-phenyl)-amide] |
| 614 | CC(C)N1CCN(c2ccc3[nH]c(C(=O)Nc4ccc(F)c(F)c4)cc3c2)CC1 [Example 63, 5-(4-Isopropyl-piperazin-1-yl)-1H-indole-2-carboxylic acid (3,4-difluoro-phenyl)-amide] |
| 2950 | CC(C)N1CCC(Nc2ccc3[nH]c(C(=O)Nc4ccc(F)c(F)c4)cc3c2)CC1 [Example 65, 5-(1-Isopropyl-piperidin-4-ylamino)-1H-indole-2-carboxylic acid (3,4-difluoro-phenyl)-amide] |
| 727 | COCCN1CCCC(c2ccc3[nH]c(C(=O)Nc4cccc(F)c4)cc3c2)C1 (centres unmarked) [Example 66, N-(3-Fluorophenyl)-5-(1-(2-methoxyethyl)piperidin-3-yl)-1H-indole-2-carboxamide] |
| 657 | O=C(Nc1cccc(F)c1)c1cc2cc(C3CCCN(CCO)C3)ccc2[nH]1 (centres unmarked) [Example 67, N-(3-Fluorophenyl)-5-(1-(2-hydroxyethyl)piperidin-3-yl)-1H-indole-2-carboxamide] |
| 777 | O=C(Nc1cccc(F)c1)c1cc2cc(C3CCCN(CC4CCCO4)C3)ccc2[nH]1 (centres unmarked) [Example 68, N-(3-Fluorophenyl)-5-(1-((tetrahydrofuran-2-yl)methyl)piperidin-3-yl)-1H-indole-2-carboxamide] |
| 662 | O=C(Nc1cccc(F)c1)c1cc2cc(C3CCCNC3)ccc2[nH]1 (centres unmarked) [Example 69, N-(3-Fluorophenyl)-5-(piperidin-3-yl)-1H-indole-2-carboxamide] |
| 810 | CCN1CCCC(c2ccc3[nH]c(C(=O)Nc4cccc(F)c4)cc3c2)C1 (centres unmarked) [Example 70, 5-(1-Ethylpiperidin-3-yl)-N-(3-fluorophenyl)-1H-indole-2-carboxamide] |
| 977 | O=C(Nc1cccc(F)c1)c1cc2cc(C3CCCN(CC4CC4)C3)ccc2[nH]1 (centres unmarked) [Example 71, 5-(1-(Cyclopropylmethyl)piperidin-3-yl)-N-(3-fluorophenyl)-1H-indole-2-carboxamide] |
| 1110 | O=C(Nc1cccc(F)c1)c1cc2cc(C3CCCN(C4CC4)C3)ccc2[nH]1 (centres unmarked) [Example 72, 5-(1-Cyclopropylpiperidin-3-yl)-N-(3-fluorophenyl)-1H-indole-2-carboxamide] |
| 9290 | O=C(Nc1cccc(F)c1)c1cc2cc(C3CCCN(CC(F)(F)F)C3)ccc2[nH]1 (centres unmarked) [Example 73, N-(3-Fluorophenyl)-5-(1-(2,2,2-trifluoroethyl)piperidin-3-yl)-1H-indole-2-carboxamide] |
